Assay results from PMC9956870, “Exploring functional and structural features of chemically related natural prenylated hydroquinone and benzoic acid from Piper crassinervium (Piperaceae) on bacterial peroxiredoxin inhibition” (PLOS ONE, 2023).

Assays:
Prx2 (HsPrx2) = target: T1, Prx2 (HsPrx2) (Homo sapiens, UniProt P32119); assay: NADPH-coupled peroxidase assay (yeast Trx system); format: biochemical
T1 construct: gene PRDX2
T1 sequence (P32119 2-198): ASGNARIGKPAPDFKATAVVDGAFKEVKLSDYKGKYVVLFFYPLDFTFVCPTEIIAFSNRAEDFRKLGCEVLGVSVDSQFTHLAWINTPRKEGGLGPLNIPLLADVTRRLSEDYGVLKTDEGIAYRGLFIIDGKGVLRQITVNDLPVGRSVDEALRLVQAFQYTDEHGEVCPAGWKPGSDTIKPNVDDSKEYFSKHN

[1] = target: T2, alkyl hydroperoxide reductase C (SeAhpC) (Staphylococcus epidermidis, UniProt Q8CMQ2); assay: NADPH-coupled peroxidase assay; format: biochemical
T2 construct: gene ahpC
T2 sequence (Q8CMQ2 1-189): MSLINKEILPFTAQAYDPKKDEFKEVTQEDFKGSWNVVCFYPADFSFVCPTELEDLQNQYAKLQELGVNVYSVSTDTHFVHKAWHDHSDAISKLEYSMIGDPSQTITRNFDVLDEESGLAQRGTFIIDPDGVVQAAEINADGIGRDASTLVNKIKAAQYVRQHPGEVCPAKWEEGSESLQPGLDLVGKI

CCN1C(=O)C=CC1=O [NEM, N-ethylmaleimide]
peroxidase initial rate (Prx2 (HsPrx2)): 0.02 ± 0.01 μMs^-1 (v0; untreated 0.62 ± 0.03)
NADPH-coupled peroxidase assay [1]: As expected for the samples subjected to NEM treatment, no peroxidase activity was detected to both enzymes
